Data on five compounds can be found in patent publication US5424456A, “N-arylalkylderivatives of 2-aminomethyl-2,3-dihydro-1,4-benzodioxine and the process of preparation thereof” (Vyzkumny Ustav Pro Farmacii A Biochemii s.p., priority 1991, dated 1995).

The structures appear in SMILES notation.

As usually defined, the IC50 is the point on the concentration scale where inhibition reaches its midpoint.

One test concerns blood pressure. As to the kind of experiment: Hypotensive activity, pentobarbital anaesthesized dogs. The following applies: i.v. It counts as in vivo, dog. The text has this: b) The blood pressure of pentobarbital anaesthesized dogs was registered invasively in arteria femoralis. The average decrease in systolic (SBP) arid diastolic (DBP) blood pressure expressed in per cents of the starting blood pressure level after intravenous and oral administration is shown in Tables 5 and 6.

Another test deals with T1, calcium channel (Rattus norvegicus, UniProt P22002).
T1 construct: helically cut rat aortic strip; from tissue; host or cells: rat aorta (helically cut strip)
As to the kind of experiment: Calcium channel blocking activity, K+ depolarization-induced contraction of helically cut rat aortic strip. Particulars: Krebs-Henselheit solution, 37° C., cumulative doses, read-out: IC50 (50% decrease of contraction of the aortic strip). As to the method: The calcium channel blocking activity of the compounds was tested using a helically cut rat aortic strip in Krebs-Henselheit solution at 37° C., bubbled with a mixture of 95% O2 and 5% CO2. The isometrically registered contractions were induced by K^(+). depolarization. The test compounds were applied in a cumulative doses and the vasodilating activity thereof was expressed in calculated concentration of the test compound, causing 50% decrease of contraction of the aortic strip (IC50).

Test [1] has as its system rat peripheral venous thrombosis. In words: Antithrombotic activity, rat peripheral venous thrombosis in closed abdominal part of vena cava. It counts as in vivo. The following applies: po, rats, orally, read-out: statistically significant effective dose (mass of thrombi). As to the method:
The antithrombotic activity of the test compounds was established using the model of rat peripheral venous thrombosis in a closed abdominal part of vena cava. The thrombus was induced by intravenous administration of hypotonic solution of sodium chloride. The thrombus was freed 10 minutes after induction and weighted. The mass of thrombi in control animals was compared to the mass of thrombi of animals administered by the test compound. The statistically significant effective dose for compound VUFB 17951 was 0.5 mg/kg intravenously and 5 mg/kg orally and for the compound VUFB 17959 0.25 mg/kg and 1.0 mg/kg, respectively. The corresponding dose of a standard (Cilostazol, generic name, Merck index, 11th Edition, 2277) was 25 mg/kg orally.

The mark [2] stands for this setting: 4.5 mg/kg, value 1 of 5 (heads 5/30/60/180 min; probably 1 min).
The mark [3] stands for this setting: 4.5 mg/kg, value 2 of 5 (heads 5/30/60/180 min; probably 5 min).
Where [4] appears, read: 4.5 mg/kg, value 3 of 5 (heads 5/30/60/180 min; probably 30 min).
Where [5] appears, read: 4.5 mg/kg, value 4 of 5 (heads 5/30/60/180 min; probably 60 min).
The mark [6] stands for this setting: 4.5 mg/kg, value 5 of 5 (heads 5/30/60/180 min; probably 180 min).
Setting [7] is: 4.6 mg/kg, value 1 of 5 (heads 5/30/60/180 min; probably 1 min).
Where [8] appears, read: 4.6 mg/kg, value 2 of 5 (heads 5/30/60/180 min; probably 5 min).
[9] abbreviates: 4.6 mg/kg, value 3 of 5 (heads 5/30/60/180 min; probably 30 min).
Setting [10] is: 4.6 mg/kg, value 4 of 5 (heads 5/30/60/180 min; probably 60 min).
[11] abbreviates: 4.6 mg/kg, value 5 of 5 (heads 5/30/60/180 min; probably 180 min).

T1 sequence (P22002 whole entry): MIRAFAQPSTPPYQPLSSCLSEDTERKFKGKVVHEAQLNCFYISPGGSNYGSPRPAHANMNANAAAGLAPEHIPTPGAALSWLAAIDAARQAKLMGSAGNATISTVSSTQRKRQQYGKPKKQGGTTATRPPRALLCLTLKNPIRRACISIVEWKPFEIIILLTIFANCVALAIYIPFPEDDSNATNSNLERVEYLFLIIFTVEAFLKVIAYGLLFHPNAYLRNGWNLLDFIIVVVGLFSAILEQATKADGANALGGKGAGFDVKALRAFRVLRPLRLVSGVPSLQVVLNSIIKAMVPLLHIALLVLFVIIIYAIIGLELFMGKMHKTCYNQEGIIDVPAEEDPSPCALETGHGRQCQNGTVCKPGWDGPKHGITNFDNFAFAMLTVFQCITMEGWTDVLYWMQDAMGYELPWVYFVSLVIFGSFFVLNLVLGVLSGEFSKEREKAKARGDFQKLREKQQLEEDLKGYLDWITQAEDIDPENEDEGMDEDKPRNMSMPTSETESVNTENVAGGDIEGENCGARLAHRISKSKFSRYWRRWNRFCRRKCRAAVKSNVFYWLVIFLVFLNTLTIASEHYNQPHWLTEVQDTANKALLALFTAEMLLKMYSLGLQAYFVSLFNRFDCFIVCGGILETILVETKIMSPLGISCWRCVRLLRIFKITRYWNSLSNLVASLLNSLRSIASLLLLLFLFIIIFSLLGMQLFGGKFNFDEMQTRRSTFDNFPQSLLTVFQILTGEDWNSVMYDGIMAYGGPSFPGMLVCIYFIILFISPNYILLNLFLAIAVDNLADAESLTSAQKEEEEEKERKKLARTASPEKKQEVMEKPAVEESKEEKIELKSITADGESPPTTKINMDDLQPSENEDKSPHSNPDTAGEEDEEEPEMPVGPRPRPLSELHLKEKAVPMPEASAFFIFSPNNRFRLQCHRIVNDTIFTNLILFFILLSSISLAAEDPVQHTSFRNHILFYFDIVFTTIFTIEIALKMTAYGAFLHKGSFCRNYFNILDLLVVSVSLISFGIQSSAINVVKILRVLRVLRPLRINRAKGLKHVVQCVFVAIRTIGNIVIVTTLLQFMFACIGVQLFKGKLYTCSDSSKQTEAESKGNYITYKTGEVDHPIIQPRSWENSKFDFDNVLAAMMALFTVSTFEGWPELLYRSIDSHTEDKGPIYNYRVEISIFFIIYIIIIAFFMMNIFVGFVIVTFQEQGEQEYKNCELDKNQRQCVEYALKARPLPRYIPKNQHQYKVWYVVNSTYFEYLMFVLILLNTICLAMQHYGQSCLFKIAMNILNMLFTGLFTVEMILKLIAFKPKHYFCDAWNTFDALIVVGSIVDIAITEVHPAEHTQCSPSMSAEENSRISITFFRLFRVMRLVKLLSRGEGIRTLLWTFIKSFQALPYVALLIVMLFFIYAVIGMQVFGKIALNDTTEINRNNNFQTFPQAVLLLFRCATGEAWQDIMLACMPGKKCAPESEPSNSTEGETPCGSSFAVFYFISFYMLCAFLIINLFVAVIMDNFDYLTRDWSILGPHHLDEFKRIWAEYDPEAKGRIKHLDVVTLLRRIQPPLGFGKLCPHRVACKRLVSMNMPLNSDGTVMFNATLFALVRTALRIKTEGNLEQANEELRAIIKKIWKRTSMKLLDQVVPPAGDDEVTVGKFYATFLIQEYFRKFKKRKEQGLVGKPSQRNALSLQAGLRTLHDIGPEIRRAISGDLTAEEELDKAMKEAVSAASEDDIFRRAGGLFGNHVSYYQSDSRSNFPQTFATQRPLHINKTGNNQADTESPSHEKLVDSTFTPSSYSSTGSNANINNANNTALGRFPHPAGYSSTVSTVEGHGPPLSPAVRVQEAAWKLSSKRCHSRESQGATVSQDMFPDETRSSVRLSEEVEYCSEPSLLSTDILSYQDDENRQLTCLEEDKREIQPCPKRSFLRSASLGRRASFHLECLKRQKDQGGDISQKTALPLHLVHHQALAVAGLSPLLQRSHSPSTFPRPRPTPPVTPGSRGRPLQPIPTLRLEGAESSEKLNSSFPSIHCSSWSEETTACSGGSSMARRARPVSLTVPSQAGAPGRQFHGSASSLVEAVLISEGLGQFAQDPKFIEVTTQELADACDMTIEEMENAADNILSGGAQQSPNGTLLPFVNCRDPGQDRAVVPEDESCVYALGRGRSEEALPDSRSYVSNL
T1 sequence (P54290 25-1091 partner): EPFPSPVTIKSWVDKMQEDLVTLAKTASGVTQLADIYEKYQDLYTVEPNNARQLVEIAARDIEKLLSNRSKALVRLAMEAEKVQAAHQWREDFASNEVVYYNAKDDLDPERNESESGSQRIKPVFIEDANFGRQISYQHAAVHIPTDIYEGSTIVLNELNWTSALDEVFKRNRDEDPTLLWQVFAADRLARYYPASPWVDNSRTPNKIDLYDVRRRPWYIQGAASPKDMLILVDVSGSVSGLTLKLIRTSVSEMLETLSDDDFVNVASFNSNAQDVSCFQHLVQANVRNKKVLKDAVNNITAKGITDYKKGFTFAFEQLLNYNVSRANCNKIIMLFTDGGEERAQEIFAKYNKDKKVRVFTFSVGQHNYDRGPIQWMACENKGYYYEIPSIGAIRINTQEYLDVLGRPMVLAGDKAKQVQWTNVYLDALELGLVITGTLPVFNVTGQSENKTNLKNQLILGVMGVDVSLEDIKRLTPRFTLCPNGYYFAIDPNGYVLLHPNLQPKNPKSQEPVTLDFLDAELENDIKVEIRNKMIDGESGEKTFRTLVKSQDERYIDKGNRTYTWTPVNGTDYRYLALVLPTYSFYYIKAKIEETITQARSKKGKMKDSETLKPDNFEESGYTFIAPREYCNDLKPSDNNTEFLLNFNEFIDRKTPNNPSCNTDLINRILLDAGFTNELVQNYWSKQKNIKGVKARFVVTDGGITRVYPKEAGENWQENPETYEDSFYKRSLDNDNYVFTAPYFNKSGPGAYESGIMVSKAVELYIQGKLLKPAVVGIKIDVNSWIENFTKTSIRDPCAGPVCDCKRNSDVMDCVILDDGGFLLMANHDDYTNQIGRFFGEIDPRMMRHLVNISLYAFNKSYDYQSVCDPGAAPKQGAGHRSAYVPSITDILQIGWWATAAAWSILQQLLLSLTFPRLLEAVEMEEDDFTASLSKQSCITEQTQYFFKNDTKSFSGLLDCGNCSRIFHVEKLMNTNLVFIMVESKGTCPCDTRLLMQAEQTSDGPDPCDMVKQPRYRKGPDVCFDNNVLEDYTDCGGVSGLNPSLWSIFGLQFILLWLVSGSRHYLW

For `Cc1ccccc1C(C#N)(CCCNCC1COc2ccccc2O1)C(C)C` (single isomer, unassigned) [VUFB 18007, 5-[(+)-2,3-dihydro-1,4-benzodioxin-2-ylmethylamino]-2-isopropyl-2- -(2-methylphenyl) valeronitrite], the “decrease in diastolic blood pressure (DBP)” value (from here on “decrease … (DBP)”) in the test on blood pressure (setting [2]) is -66 per cents; with blood pressure (setting [3]), -41 per cents; with blood pressure (setting [4]) it was -25 per cents; in the test with blood pressure (setting [5]) it was -19 per cents; in the test on blood pressure (setting [6]) it was -12 per cents. In addition, the “decrease in systolic blood pressure (SBP)” value (from here on “decrease … (SBP)”) with blood pressure (setting [2]) was -47 per cents; with blood pressure (setting [3]), -33 per cents; in the test on blood pressure (setting [4]) it was -27 per cents; with blood pressure (setting [5]) it was -22 per cents; in the test with blood pressure (setting [6]) it was -17 per cents. Moreover, the IC50 at calcium channel is 15 µM.
As to `Cc1ccccc1C(C#N)(CCCNCC1COc2ccccc2O1)C(C)C` (single isomer, unassigned) [VUFB 18018, 5-[(-)-2,3-dihydro-1,4-benzodioxin-2-ylmethylamino]-2-isopropyl-2- -(2-methylphenyl) valeronitrile], the “decrease … (DBP)” value in the test on blood pressure (setting [2]) is given as -54 per cents; in the test with blood pressure (setting [3]), -46 per cents; in the test with blood pressure (setting [4]), -29 per cents; in the test with blood pressure (setting [5]), -24 per cents; in the test with blood pressure (setting [6]), -22 per cents. Further, the “decrease … (SBP)” value in the test with blood pressure (setting [2]) is on record as -40 per cents; with blood pressure (setting [3]), -42 per cents; in the test on blood pressure (setting [4]) it was -30 per cents; with blood pressure (setting [5]) it was -22 per cents; in the test with blood pressure (setting [6]), -21 per cents. In addition, the IC50 on calcium channel was 15 µM.
As for `COc1ccc(C(C#N)(CCCNCC2COc3ccccc3O2)C(C)C)cc1OC` (single isomer, unassigned) [VUFB 18019, 5-[(+)-2,3-dihydro-1,4-benzodioxin-2-ylmethylamino]-2-(3,4-dimethoxyphenyl)-2-isopropyl valeronitrile], the “decrease … (DBP)” value is -54 per cents in the test with blood pressure (setting [7]); -32 per cents with blood pressure (setting [8]); -8 per cents in the test with blood pressure (setting [9]); -14 per cents in the test on blood pressure (setting [10]); -8 per cents in the test on blood pressure (setting [11]). In addition, the “decrease … (SBP)” value is on record as -17 per cents in the test on blood pressure (setting [7]); -32 per cents in the test with blood pressure (setting [8]); -26 per cents in the test with blood pressure (setting [9]); -16 per cents in the test on blood pressure (setting [10]); -14 per cents in the test on blood pressure (setting [11]). Also, on calcium channel, the IC50 worked out at 16 µM.
Consider `COc1ccc(C(C#N)(CCCNCC2COc3ccccc3O2)C(C)C)cc1OC` (single isomer, unassigned) [VUFB 18020, 5-[(-)-2,3-dihydro-1,4-benzodioxin-2-ylmethylamino]-2-(3,4-dimeth-oxyphenyl)-2-isopropyl valeronitrile], for which the “decrease … (DBP)” value with blood pressure (setting [7]) was -63 per cents; in the test on blood pressure (setting [8]), -63 per cents; in the test on blood pressure (setting [9]), -45 per cents; with blood pressure (setting [10]) it was -37 per cents; in the test on blood pressure (setting [11]), -34 per cents. Moreover, the “decrease … (SBP)” value is reported as -46 per cents in the test with blood pressure (setting [7]); -58 per cents in the test on blood pressure (setting [8]); -43 per cents in the test with blood pressure (setting [9]); -35 per cents with blood pressure (setting [10]); -40 per cents with blood pressure (setting [11]). Besides, on calcium channel, the IC50 turned out to be 25 µM.
On to `O=C1CCc2cc(OCCCCc3nnnn3C3CCCCC3)ccc2N1` [Cilostazol, reference compound], for which the minimal effective dose in test [1] was 25 mg/kg.
